Measurements from patent publication US20030229066A1, “Novel heterocyclic urea derivatives and their use as dopamine D3 receptor ligands” (priority 2001, published 2003).
Like-named read-outs stand apart in the source and are kept apart here.

Tests used:
[1] = target: T1, cloned human alpha-1A adrenergic receptors (α1a) (Homo sapiens, UniProt P35348); assay: [3H]Prazosin binding to cloned human alpha-1A adrenergic receptors expressed in CHO cells; settings: for Ki: Table II, pairs of 6-fluoro and 6-trifluoromethyl benzo[b]thiophenes, read-out: halpha1Ki
T1 construct: expressed in transfected cells
T1 sequence (P35348 1-466): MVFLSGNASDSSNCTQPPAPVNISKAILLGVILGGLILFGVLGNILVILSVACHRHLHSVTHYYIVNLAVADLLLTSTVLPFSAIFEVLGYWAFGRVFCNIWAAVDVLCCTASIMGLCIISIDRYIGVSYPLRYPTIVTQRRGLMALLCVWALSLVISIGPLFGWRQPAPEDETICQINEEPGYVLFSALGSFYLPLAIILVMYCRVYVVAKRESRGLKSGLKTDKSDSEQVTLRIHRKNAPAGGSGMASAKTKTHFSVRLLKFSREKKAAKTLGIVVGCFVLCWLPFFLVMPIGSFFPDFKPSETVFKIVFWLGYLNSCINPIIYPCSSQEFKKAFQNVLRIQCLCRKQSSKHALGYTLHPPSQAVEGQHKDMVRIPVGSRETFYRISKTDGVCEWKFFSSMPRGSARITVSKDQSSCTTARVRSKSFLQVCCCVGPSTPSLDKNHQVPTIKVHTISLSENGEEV
Excerpt: [^3H]PRAZOSIN BINDING TO CLONED HUMAN ALPHA-1A ADRENERGIC RECEPTORS (α1a) EXPRESSED IN CHINESE HAMSTER OVARY CELLS (CHO)
This in vitro assay is designed as a screen to identify compounds displaying a affinity for the human α1a adrenoceptor subtype expressed in the membrane fragments of CHO cells. The assay-measures the ability of the test compounds to displace [^3H]prazosin from α1a sites.
Therefore, the binding of compounds to α1a adrenergic receptors is believed to be a good measure of a compound's potential to cause orthostatic hypotension and sedation as side effects. Prazosin is a potent antagonist of the human α1a-adrenoceptor subtype, which has been cloned and is expressed in the membrane fragments of CHO cells.
The cloning of the human α1a cDNA was accomplished first by screening a human prostate cDNA library (Clontech), from which a portion of the coding region was obtained. This DNA fragment was then used to screen a human leukocyte genomic library (Clontech), and the rest of the coding sequence was obtained. Later these two fragments were spliced together. The entire coding sequence was then fully sequenced including matching PCR sequence with original genomic coding sequence, thus ensuring splice sites were joined correctly (Schwinn et al., 1995). Once sequenced, the gene was subcloned into the expression vector pcDNA3 (Invitrogen). Plasmid DNA was then used for transfection into CHO cells and G418 resistant clones were isolated. A clone expressing high levels of the hα1a receptor (as determined by mRNA and receptor binding data) was chosen and pharmacologically characterized.
[7-methoxy-^3H]-Prazosin: 1.0 nM (NEN, NET-823) 70-87 Ci/mmol
A: 50 mM Tris HCl; 0.1% ascorbate, pH 7.7 (incubation buffer)
Total Binding=50 μl buffer A+50 μl [^3H]prazosin+100 μl membrane
Nonsp. Bd.=50 μl 10 μM phentolamine+50 μl [^3H]prazosin+100 μl membrane
Test Cpd.=50 μl compound+50 μl [^3H]prazosin+100 μl membrane
Compounds to be evaluated are weighed out to yield a 10 mM stock solution in DMSO in a 24 well polystyrene plate. This is diluted to a 0.5 mM stock in dH2O. Serial dilutions in Buffer A are made from which 50 μl additions to the plate are made in duplicate in order to achieve the final concentrations desired. Typically, one 96 well plate is used to evaluate 11 compounds at 4 concentrations (10^−6-10^−9 M) in duplicate. Total binding and nonspecific binding are determined in quadruplicate. Usually one standard is run with each assay.
[^3H]Prazosin is made up in Buffer A such that when 50 μl are added per well the final concentration is 1.0 nM in a final assay volume of 200 μl. The final concentration should be verified by running a sample in a scintillation counter prior to adding the [^3H]prazosin to the 96 well plate. Note: The radioactivity should be prepared just before the additions are made so that it is not allowed to sit on the bench for very long.
Incubation & Filtration: Once buffer, compounds, [^3H]prazosin and membrane have been added (and mixed), the 96 well plates are incubated for 40 min at 37° C. and spaced 3-5 min apart. At 40 min, the plates are filtered using a Tomtec Automated Cell Harvester. Filtration is immediately followed by washes of ice cold Buffer B (total vol. ˜7 ml).
Analysis of Results: Raw DPM and CPM data are captured on disk and are imported into one of several software packages (Graphpad Prism Ver 2.0, Excel) residing on the LAN. Specific binding is defined as the difference between total binding and the binding in the presence of 10 μM phentolamine. Total binding is less than 10% of the total added ligand. Software using one-site competition curve analysis is employed in the calculation of IC50 and Kj (Cheng-Prusoff equation, 1973). The top and bottom of the non-linear regression are held constant at 0% and 100% inhibition. The percent inhibition at each drug concentration is the mean of duplicate determinations.

[2] = target: T2, cloned human dopamine D3 receptors (Homo sapiens, UniProt P35462); assay: [N-Methyl-3H]Spiroperidol binding to cloned human dopamine D3 receptors
T2 construct: expressed in transfected cells
How it was run: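 Competition binding on homogenized CHO cells stably expressing human D3, with 0.4 nM [3H]NMSP (final), 37 °C for 30 min, filtration and scintillation counting. Nonspecific binding defined with 3 μM S(-)-eticlopride; typically eight test concentrations, 10^−5–10^−8 M final. Ki by Cheng-Prusoff from one-site competition fits, duplicate means.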

T2 sequence (P35462 whole entry): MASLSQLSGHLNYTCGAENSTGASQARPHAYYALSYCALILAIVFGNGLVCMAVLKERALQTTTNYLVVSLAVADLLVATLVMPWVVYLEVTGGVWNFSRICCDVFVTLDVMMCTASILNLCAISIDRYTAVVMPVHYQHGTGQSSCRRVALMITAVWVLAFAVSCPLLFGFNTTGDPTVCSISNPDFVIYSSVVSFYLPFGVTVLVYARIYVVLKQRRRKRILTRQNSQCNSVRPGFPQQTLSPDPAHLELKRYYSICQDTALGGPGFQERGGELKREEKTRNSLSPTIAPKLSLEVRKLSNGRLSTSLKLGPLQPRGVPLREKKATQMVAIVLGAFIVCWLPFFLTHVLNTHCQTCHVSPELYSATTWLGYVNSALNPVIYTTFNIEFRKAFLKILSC

SMILES | Ki [1] [nM] | Ki ([2]; Table III, read-out: d3Ki) [nM] | Ki [2] [nM] | also measured
O=C(NCCCCN1CCN(c2csc3cc(F)ccc23)CC1)Nc1ccccc1 [compound 813581] | 1.5 |  |  | 
CC(=O)c1ccc(NC(=O)NCCCCN2CCN(c3csc4cc(F)ccc34)CC2)cc1 [compound 814932] | 2.2 |  |  | 
COc1ccc(NC(=O)NCCCCN2CCN(c3csc4cc(F)ccc34)CC2)cc1 [compound 814933] | 1.8 |  |  | 
CCCCc1ccc(NC(=O)NCCCCN2CCN(c3csc4cc(F)ccc34)CC2)cc1 [compound 814937] | 532 |  |  | 
Cc1ccc(NC(=O)NCCCCN2CCN(c3csc4cc(F)ccc34)CC2)cc1 [compound 814941] | 13.5 |  |  | 
O=C(NCCCCN1CCN(c2csc3cc(F)ccc23)CC1)NC1CCCCC1 [compound 814945] | 4.5 |  |  | 
O=C(NCCCCN1CCN(c2csc3cc(F)ccc23)CC1)Nc1ccc(Br)cc1 [compound 814949] | 18.2 |  |  | 
O=C(NCCCCN1CCN(c2csc3cc(F)ccc23)CC1)Nc1ccc(C(F)(F)F)cc1 [compound 814952] | 44.8 |  |  | 
O=C(NCCCCN1CCN(c2csc3cc(F)ccc23)CC1)Nc1cccc(F)c1 [compound 814953] | 3.5 |  |  | 
CC(=O)c1ccc(NC(=O)NCCCCN2CCN(c3csc4cc(C(F)(F)F)ccc34)CC2)cc1 [compound 815993] | 74.9 | 2.26 |  | 
COc1ccc(NC(=O)NCCCCN2CCN(c3csc4cc(C(F)(F)F)ccc34)CC2)cc1 [compound 815994] | 1220 | 8.87 |  | halpha1 % I ([1]; @1 μM): 11.9& Inh @1 μM % Inh
CCCOc1ccc(NC(=O)NCCCCN2CCN(c3csc4cc(C(F)(F)F)ccc34)CC2)cc1 [compound 815995] |  | 17.5 |  | halpha1 % I ([1]; @10 μM): 42.4% Inh @10 μM
Cc1ccc(NC(=O)NCCCCN2CCN(c3csc4cc(C(F)(F)F)ccc34)CC2)cc1 [compound 815997] | 936 | 4.5 |  | halpha1 % I ([1]; @1 μM): 23.5% Inh @1 μM
O=C(NCCCCN1CCN(c2csc3cc(C(F)(F)F)ccc23)CC1)Nc1ccc(Br)cc1 [compound 816000] | 234 | 6.31 |  | 
O=C(NCCCCN1CCN(c2csc3cc(C(F)(F)F)ccc23)CC1)NC1CCCCC1 [compound 816001] | 83.6 | 4.68 |  | 
O=C(NCCCCN1CCN(c2csc3cc(C(F)(F)F)ccc23)CC1)Nc1ccc(C(F)(F)F)cc1 [compound 816002] | 435 | 12.5 |  | halpha1 % I ([1]; @1 μM): 30.2% Inh @1 μM
O=C(NCCCCN1CCN(c2csc3cc(C(F)(F)F)ccc23)CC1)Nc1cccc(F)c1 [compound 816003] | 56.7 | 1.58 |  | 
O=C(NCCCCN1CCN(c2csc3cc(C(F)(F)F)ccc23)CC1)Nc1ccccc1 [compound 816005] | 56.8 | 2.54 |  | 
O=C(NC[C@@H]1C[C@H]1CN1CCN(c2csc3cc(C(F)(F)F)ccc23)CC1)NC1CCCCC1 [compound 832811] |  |  | 18.2 | 
O=C(NC[C@@H]1C[C@H]1CN1CCN(c2csc3cc(C(F)(F)F)ccc23)CC1)Nc1ccccc1C(F)(F)F [compound 832812] |  |  | 39.5 | 
O=C(NC[C@@H]1C[C@H]1CN1CCN(c2csc3cc(C(F)(F)F)ccc23)CC1)Nc1cccc(Cl)c1 [compound 832813] |  |  | 50.8 | 
O=C(NC[C@@H]1C[C@H]1CN1CCN(c2csc3cc(C(F)(F)F)ccc23)CC1)Nc1ccc(Oc2ccccc2)cc1 [compound 832820] |  |  | 3.9 | 
CC(C)c1ccc(NC(=O)NC[C@@H]2C[C@H]2CN2CCN(c3csc4cc(C(F)(F)F)ccc34)CC2)cc1 [compound 832919] |  |  | 45.2 | 
COc1cccc(NC(=O)NC[C@@H]2C[C@H]2CN2CCN(c3csc4cc(C(F)(F)F)ccc34)CC2)c1 [compound 833203] |  |  | 18.2 | 
O=C(NCCCN1CCCCC1)NC[C@@H]1C[C@H]1CN1CCN(c2csc3cc(C(F)(F)F)ccc23)CC1 [compound 833258] |  |  | 0.39 | 
O=C(NCCCn1ccnc1)NC[C@@H]1C[C@H]1CN1CCN(c2csc3cc(C(F)(F)F)ccc23)CC1 [compound 833306, 1-(3-Imidazol-1-yl-propyl)-3-{(1R, 2R )-2-[4-(6-trifluoromethyl-benzo[b]thiophen-3yl-)-piperazin-1-ylmethyl]-cyclopropylmethyl}-urea] |  |  | 0.238 | 
C[C@H]1CC[C@H](NC(=O)NC[C@@H]2C[C@H]2CN2CCN(c3csc4cc(C(F)(F)F)ccc34)CC2)CC1 [compound 833356] |  |  | 29.1 | 
O=C(NCCCCN1CCN(c2csc3cc(C(F)(F)F)ccc23)CC1)Nc1ccc(C(=O)O)cc1 [compound 833724] |  |  | 2.1 | 
O=C(NCCCCN1CCN(c2csc3cc(C(F)(F)F)ccc23)CC1)Nc1ccc(CO)cc1 [compound 833725] |  |  | 0.602 | 
